From patent US10392630B2, “Plants having increased tolerance to herbicides” (BASF AGRO B.V., priority 2013, dated 2019) come the findings set out here.

What all share (assay): biochemical
For assay [1], the target named is T1, Amaranthus mutant PPO (AMARE) (Amaranthus tuberculatus, UniProt Q0NZW9, F420V).
T1 sequence (Q0NZW9 1-534 F420V): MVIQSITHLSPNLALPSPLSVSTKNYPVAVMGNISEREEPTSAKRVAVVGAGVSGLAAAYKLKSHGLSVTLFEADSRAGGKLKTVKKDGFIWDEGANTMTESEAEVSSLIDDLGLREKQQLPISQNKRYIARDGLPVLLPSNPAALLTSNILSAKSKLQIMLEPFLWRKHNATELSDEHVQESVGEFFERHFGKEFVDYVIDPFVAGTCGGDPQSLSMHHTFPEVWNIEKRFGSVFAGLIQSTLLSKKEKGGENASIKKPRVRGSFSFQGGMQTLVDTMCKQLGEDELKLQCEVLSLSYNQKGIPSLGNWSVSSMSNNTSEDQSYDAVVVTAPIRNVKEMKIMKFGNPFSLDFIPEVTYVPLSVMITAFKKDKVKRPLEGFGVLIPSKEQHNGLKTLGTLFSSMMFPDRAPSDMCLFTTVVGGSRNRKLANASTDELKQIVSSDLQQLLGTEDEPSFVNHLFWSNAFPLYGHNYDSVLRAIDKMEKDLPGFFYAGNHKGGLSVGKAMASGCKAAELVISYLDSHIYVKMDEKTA

Assay [2] concerns the target T2, Amaranthus mutant PPO (AMARE) (Amaranthus tuberculatus, UniProt Q0NZW9, F420I/R128I).
T2 sequence (Q0NZW9 1-534 R128I/F420I): T1 sequence (Q0NZW9 1-534 F420V) with R128I, V420I

For assay [3], the target named is T3, Amaranthus mutant PPO (AMARE) (Amaranthus tuberculatus, UniProt Q0NZW9, F420I/R128L).
T3 sequence (Q0NZW9 1-534 R128L/F420I): T1 sequence (Q0NZW9 1-534 F420V) with R128L, V420I

The target of assay [4] is T4, Amaranthus mutant PPO (AMARE) (Amaranthus tuberculatus, UniProt Q0NZW7).
T4 sequence (Q0NZW7 1-533): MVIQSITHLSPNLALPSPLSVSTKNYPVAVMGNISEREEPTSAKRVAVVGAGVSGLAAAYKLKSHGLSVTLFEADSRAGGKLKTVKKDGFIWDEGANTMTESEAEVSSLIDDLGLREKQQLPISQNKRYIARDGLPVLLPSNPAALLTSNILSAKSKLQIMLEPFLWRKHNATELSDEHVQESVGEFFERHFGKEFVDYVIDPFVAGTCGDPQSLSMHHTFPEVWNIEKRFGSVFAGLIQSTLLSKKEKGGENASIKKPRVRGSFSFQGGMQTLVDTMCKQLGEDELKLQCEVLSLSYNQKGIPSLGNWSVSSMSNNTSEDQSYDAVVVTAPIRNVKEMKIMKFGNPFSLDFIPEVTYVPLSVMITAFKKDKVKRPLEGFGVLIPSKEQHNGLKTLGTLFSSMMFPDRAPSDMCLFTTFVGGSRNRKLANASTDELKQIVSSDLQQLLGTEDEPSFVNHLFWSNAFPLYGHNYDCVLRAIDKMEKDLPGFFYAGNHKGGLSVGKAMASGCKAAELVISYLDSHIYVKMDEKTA

The target of assay [5] is T5, Amaranthus mutant PPO (AMARE) (Amaranthus tuberculatus, UniProt Q0NZW9, F420V/R128L).
T5 sequence (Q0NZW9 1-534 R128L/F420V): T1 sequence (Q0NZW9 1-534 F420V) with R128L

Numbering of substitutions follows the chain as printed. pIC50: −log10 of the molar value.

`CC(C)N(C)S(=O)(=O)NC(=O)c1cc(-n2c(=O)cc(C(F)(F)F)n(C)c2=O)c(F)cc1Cl` [saflufenacil]: the pIC50 in assay [1] was 5.80; in assay [2], under 5.00; in assay [3], under 5.00; in assay [4], 5.80; in assay [5] it was under 5.00.

In the case of `C#CCN1C(=O)C(F)(F)Oc2cc(F)c(-n3c(=O)n(C)c(=S)n(C)c3=O)cc21` [BAS 850H], the negative logarithm of the IC50 (pIC50) was 8.79 in assay [1]; 6.36 in assay [2]; 5.91 in assay [3]; 8.67 in assay [4]; 5.82 in assay [5].
